{"source": "paper PMC5818264", "about": "(Journal of the American Chemical Society, 2017)", "key": {"[1]": {"target": "LeuT (leucine transporter) (Aquifex aeolicus, UniProt O67854)", "test": "scintillation proximity assay", "type": "binding", "details": "labelled compound; DDM or NBMs at CMC + […] or […] wt %; room temperature"}, "[2]": {"target": "T1, MelBEc (MelB homologue from E. coli) (Escherichia coli, UniProt P02921)", "T1 sequence (P02921 2-473)": "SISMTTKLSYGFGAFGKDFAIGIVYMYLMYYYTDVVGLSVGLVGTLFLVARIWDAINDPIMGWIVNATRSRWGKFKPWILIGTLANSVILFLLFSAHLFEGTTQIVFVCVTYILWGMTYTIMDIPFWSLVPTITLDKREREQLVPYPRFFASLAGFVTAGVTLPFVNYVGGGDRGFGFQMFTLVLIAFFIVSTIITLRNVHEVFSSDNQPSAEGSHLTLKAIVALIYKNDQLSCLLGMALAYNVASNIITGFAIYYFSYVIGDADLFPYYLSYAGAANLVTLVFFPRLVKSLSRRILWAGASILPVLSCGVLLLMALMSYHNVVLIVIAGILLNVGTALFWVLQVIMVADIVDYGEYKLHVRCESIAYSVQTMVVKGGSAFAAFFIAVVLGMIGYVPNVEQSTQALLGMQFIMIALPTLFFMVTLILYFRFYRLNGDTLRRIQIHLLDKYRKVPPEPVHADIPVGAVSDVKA", "test": "Trp to dansyl FRET in detergent extract of membrane vesicles", "details": "[…] D^2G; D-NBM-C11; sugar binding site"}, "[3]": {"target": "T2, MelBSt (melibiose permease of Salmonella typhimurium) (Salmonella enterica, UniProt P30878)", "T2 sequence (P30878 whole entry)": "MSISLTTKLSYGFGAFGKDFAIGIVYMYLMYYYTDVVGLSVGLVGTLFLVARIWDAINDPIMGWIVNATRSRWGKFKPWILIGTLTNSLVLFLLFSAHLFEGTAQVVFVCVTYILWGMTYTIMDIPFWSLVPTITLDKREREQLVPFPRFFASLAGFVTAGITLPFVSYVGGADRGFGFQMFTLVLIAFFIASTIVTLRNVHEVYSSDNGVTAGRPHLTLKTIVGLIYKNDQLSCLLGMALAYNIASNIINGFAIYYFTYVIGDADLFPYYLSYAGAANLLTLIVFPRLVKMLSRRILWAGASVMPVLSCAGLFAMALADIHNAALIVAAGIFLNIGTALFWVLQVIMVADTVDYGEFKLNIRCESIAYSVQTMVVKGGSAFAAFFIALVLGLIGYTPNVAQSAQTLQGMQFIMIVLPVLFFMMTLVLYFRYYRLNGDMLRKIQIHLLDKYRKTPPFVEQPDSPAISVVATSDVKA", "test": "Trp to dansyl FRET in detergent extract of membrane vesicles", "details": "[…] D^2G; DDM or D-NBM-C11; sugar binding site"}, "[4]": {"target": "T1, MelBEc (MelB homologue from E. coli)", "test": "reversal of Trp to D^2G FRET in detergent extract of membrane vesicles", "type": "binding", "details": "saturating melibiose; […] D^2G; D-NBM-C11; competitive"}, "[5]": {"target": "T2, MelBSt (melibiose permease of Salmonella typhimurium)", "test": "reversal of Trp to D^2G FRET in detergent extract of membrane vesicles", "type": "binding", "details": "saturating melibiose; […] D^2G; DDM or D-NBM-C11; competitive"}}, "data": [{"smiles": "CC(C)C[C@H](N)C(=O)O", "note": "[[^3H]-Leu]", "values": [{"measurement": "scintillation proximity assay", "setting": "[1]", "result": "ability of the transporter to bind radiolabeled leucine [^3H-Leu]"}]}, {"smiles": "CN(C)c1cccc2c(S(=O)(=O)NCCS[C@@H]3O[C@H](CO)[C@H](O)[C@H](O)[C@H]3O)cccc12", "note": "[2′-(N-dansyl) aminoalkyl-1-thio-β-D-galactopyranoside]", "values": [{"measurement": "Trp to dansyl FRET in detergent extract of membrane vesicles", "setting": "[2]", "result": "both MelB proteins gave remarkable levels of galactoside binding in D-NBM-C11"}, {"measurement": "Trp to dansyl FRET in detergent extract of membrane vesicles", "setting": "[3]", "result": "FRET from tryptophan residues (Trp) to a fluorescent ligand"}]}, {"smiles": "OC[C@H]1O[C@H](OC[C@H]2OC(O)[C@H](O)[C@@H](O)[C@@H]2O)[C@H](O)[C@@H](O)[C@H]1O", "note": "(some centres unmarked) [melibiose]", "values": [{"measurement": "reversal of Trp to D^2G FRET in detergent extract of membrane vesicles", "setting": "[4]", "result": "both MelB proteins gave remarkable levels of galactoside binding in D-NBM-C11"}, {"measurement": "reversal of Trp to D^2G FRET in detergent extract of membrane vesicles", "setting": "[5]", "result": "MelBSt solubilized in DDM showed an effective melibiose reversal of FRET"}]}]}
